In ChEMBL document CHEMBL4837238, “Feature-Based Molecular Networking for the Targeted Identification of Gq-Inhibiting FR900359 Derivatives” (J Nat Prod, 2021):
Starred links: 1 amine or outer side, 2 acyl side, 3 side chain; linkers in the order of their positions; H or OH if unused. Positions of bridges follow the written chain, without caps; N, C: chain ends. Non-standard residues stand in square brackets, D forms with d. Residues, ends and D or L forms follow the SMILES beside them. *: point of attachment. Leu(3R-OH,Nα-propionyl) = CCC(=O)N[C@H](C(=O)*)[C@H](O)C(C)C; X1 = CC(C)[C@@H](O[*:3])[C@H](N[*:1])C(=O)[*:2]; NMeT = CN[C@H](C(=O)O)[C@@H](C)O; dPhLac = O=C(O)[C@H](O)Cc1ccccc1; NMeA = CN[C@@H](C)C(=O)O; NMeDha = C=C(NC)C(=O)O

Assays:
[1] = Displacement of [3H]-PSB15900 from human platelet membrane Gq incubated for 90 mins by scintillation counter method; format: cell membranes
[2] = target: T1, Guanine nucleotide-binding protein G(q) subunit alpha (Homo sapiens, UniProt P50148); assay: Inhibition of wild type GNAQ (unknown origin) expressed in CRISPR/Cas9 engineered HEK293 cells; format: cell-based
T1 sequence (P50148 whole entry): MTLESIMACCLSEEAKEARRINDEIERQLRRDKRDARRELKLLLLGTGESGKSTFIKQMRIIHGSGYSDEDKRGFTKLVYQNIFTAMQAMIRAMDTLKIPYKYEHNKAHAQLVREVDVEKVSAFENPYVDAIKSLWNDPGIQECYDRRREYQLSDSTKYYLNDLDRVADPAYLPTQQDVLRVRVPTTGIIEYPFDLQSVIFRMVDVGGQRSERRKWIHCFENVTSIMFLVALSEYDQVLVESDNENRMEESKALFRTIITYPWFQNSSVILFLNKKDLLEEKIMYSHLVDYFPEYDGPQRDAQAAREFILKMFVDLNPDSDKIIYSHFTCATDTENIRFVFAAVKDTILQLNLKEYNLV

| IC50 [2] | Structure (SMILES) | pKi [1] |
| --- | --- | --- |
| 2.75 µM | C=C1C(=O)N[C@@H](C)C(=O)N(C)[C@@H](C)C(=O)N[C@@H]([C@H](OC(=O)[C@@H](NC(C)=O)C(O)C(C)C)C(C)C)C(=O)N(C)/C(=C\C)C(=O)O[C@H](C(C)C)[C@H](NC(C)=O)C(=O)O[C@H](Cc2ccccc2)C(=O)N1C (single isomer, unassigned) | 7.5 |
|  | C=C1C(=O)N[C@@H](C)C(=O)N(C)[C@@H](C)C(=O)N[C@@H]([C@H](OC(=O)[C@@H](NC(=O)CC)[C@H](O)C(C)C)C(C)C)C(=O)N(C)[C@@H]([C@@H](C)OC)C(=O)O[C@H](C(C)C)[C@H](NC(C)=O)C(=O)O[C@H](Cc2ccccc2)C(=O)N1C (Ac-[X1][dPhLac][NMeDha]A[NMeA][X1](Leu(3R-OH,Nα-propionyl))[NMeT](Me); ester 1-C) | 8.66 |
